The target of data set [1] is T1, HIV-1-protease (Human immunodeficiency virus type 1 group M subtype B, UniProt P04585).
T1 construct: made in house
The data set is described as follows: Inhibition of the proteolytic activity of HIV-1-protease (icosapeptide substrate, HPLC). Type of data set: biochemical. The conditions noted are these: icosapeptide RRSNQVSQNYPIVQNIQGRR 122 μM, 20 mM MES buffer pH 6.0, one hour at 37° C.; read-out: IC50 (concentration at which half the maximum inhibition of HIV-1-protease is found). How it is done:
In that procedure the inhibition of the action of HIV-1- protease (preparation: see S. Billich et al., J. Biol. Chem. 263 (34), 17905-17908 (1990)) is measured in the presence of the icosapeptide […] (a synthetic substrate of HIV-1-protease, prepared by peptide synthesis in accordance with known procedures (see J. Schneider et al., Cell 54, 363-368 (1988)), which contains as substrate analogue one of the cleavage sites of the gag-precursor protein (natural substrate of HIV-1-protease). That substrate and its cleavage products are analysed by high performance liquid chromatography (HPLC).
The test compound is dissolved in dimethyl sulfoxide. The enzymatic test is carried out by adding suitable dilutions of the inhibitor in 20 mM β-morpholinoethanesulfonic acid (MES) buffer pH 6.0 to the test mixture. That mixture consists of the above-mentioned icosapeptide (122 μM) in 20 mM MES buffer pH 6.0. 100 μl are used per test batch. The reaction is started by the addition of […] of HIV-1-protease solution and is stopped after one hour's incubation at 37° C. by the addition of 10 μl of 0.3M HClO4. After centrifugation of the sample at 10000×g for 5 minutes, 20 μl of the resulting supernatant are applied to a 125×4.6 mm Nucleosil® Cl8-5 μ HPLC column (reversed phase material supplied by Macherey & Nagel, Duren, FRG, based on silica gel that has been charged with C18 alkyl chains). The uncleaved icosapeptide and its cleavage products are eluted from the column by means of the following gradient: 100% eluant 1→50% eluant 1+50% eluant 2 (eluant 1:10% acetonitrile, 90% H2 O, 0.1% trifluoroacetic acid (TFA); eluant 2:75% acetonitrile, 25% H2 O, 0.08% TFA) over 15 minutes, throughflow rate 1 ml/min. The quantification of the eluted peptide fragments is carried out by measuring the peak height of the cleavage product at 215 nm.

In data set [2] the test system is HIV-1/MN. As to the kind of experiment: Inhibition of virus replication in MT-2 cells infected with HIV-1/MN (reverse transcriptase activity in supernatant). The conditions noted are these: 4 days' incubation. The data set is classed as cell-based. From the text:
In a further test it can be shown that the title compound from Example 5 protects cells normally infected by HIV from such an infection or at least slows down such an infection. For this test, MT-2 cells infected with HIV-1/MN are used. MT-2 cells have been transformed with HTLV-1 (a virus causing leukaemia) and are a continuous producer thereof; they are therefore especially sensitive to the cytopathogenic effect of HIV. MT-2 cells can be obtained via the AIDS Research and Reference Reagent Program, Division of AIDS, NIAID, NIH from Dr. Douglas Richman (see J. Biol. Chem. 263, 5870-5875 (1988) and also Science 229, 563-566 (1985)). The MT-2 cells are cultured in RPMI 1640 medium (Gibco, Scotland; RPMI comprises an amino acid mixture without glutamine) supplemented with 10% heat-inactivated foetal calf serum, glutamine and standard antibiotics. […] The titre of the HIV-1/MN virus stock solution (determined by titration onto MT-2 cells) is 4.2×10^5 TClD50/ml (TClD50=Tissue Culture Infective Dose=dose that infects 50% of the MT-2 cells). […] Prior to the test, 0.1% (v/v) [alpha-^32 P]dTTP is added to aliquots of the solution in order to establish a radioactivity of 10 μCl/ml.
After mixing, the plate is incubated for 2 h at 37° C. […] The radioactivity on the filters is measured in a Matrix Packard 96-well counter (Packard, Zurich, Switzerland). […]

Data set [3] can be described thus: Plasma levels in mice after oral administration. Type of data set: in vivo, female BALB/c mice. The conditions noted are these: 120 mg/kg. The method, then:
In order to determine its pharmacokinetics, the title compound from Example 5 is dissolved in dimethyl sulfoxide (DMSO) in a concentration of 240 mg/ml. The resulting solution is diluted 1:20 (v/v) with 20% (w/v) aqueous hydroxypropyl-β-cyclodextrin solution in order to obtain a concentration of the test compound of 12 mg/ml. The resulting solution is treated briefly with ultrasound and administered orally to female BALB/c mice (Bomholtgarden, Copenhagen, Denmark) by artificial tube feeding at a dose of 120 mg/kg. At fixed times (for example 30, 60, 90, 120 min) after administration, mice are sacrificed and the […] stored in heparinised test tubes. The blood is centrifuged (12000×g, 5 min) and the plasma removed. […] The precipitate is pelleted by centrifugation (12000×g, 5 min), and the concentration of the test compound is determined by reversed phase high performance liquid chromatography (HPLC).
The HPLC analysis of the samples obtained in accordance with the method described above is carried out on a 125×4.6 mm Nucleosil® C18 column (reversed phase material supplied by Macherey & Nagel, Duren, Germany, based on silica gel derivatised with hydrocarbon radicals having 18 carbon atoms), using a 2 cm long preliminary column containing the same column material. […] The test compound is detected by UV absorption measurement at 255 nm. […]

On to `COC(=O)N[C@H](C(=O)N[C@@H](Cc1ccccc1)[C@@H](O)CN(Cc1ccc(-c2nnn(C)n2)cc1)NC(=O)[C@@H](NC(=O)OC)C(C)(C)C)C(C)(C)C` [1-[4-(2-methyl-2H-tetrazol-5-yl)-phenyl]-4(S)-hydroxy-5(S)-2,5-bis[N-(N-methoxycarbonyl-(L)-tert-leucyl)amino]-6-phenyl-2-axahexane], for which, in data set [1], the IC50 is 51 nM.

Take `COC(=O)N[C@H](C(=O)N[C@@H](Cc1ccccc1)[C@@H](O)CN(Cc1ccc(-c2nccs2)cc1)NC(=O)[C@@H](NC(=O)OC)C(C)(C)C)C(C)(C)C` [1-[4-(thiazol-2-yl)-phenyl]-4(S)-hydroxy-5(S)-2,5-bis[N-(N-methoxycarbonyl-(L)-tert-leucyl)amino]-6-phenyl-2-azahexane]: the IC50 in data set [1] amounted to 33 nM.

On to `COC(=O)N[C@H](C(=O)N[C@@H](Cc1ccccc1)[C@@H](O)CN(Cc1ccc(-c2ccccn2)cc1)NC(=O)[C@@H](NC(=O)OC)C(C)(C)C)C(C)(C)C` [Example 5, 1-[4-(Pyridin-2-yl)-phenyl]-4(S)-hydroxy-5(S)-2,5-bis[N-(N-methoxycarbonyl-(L)-tert-leucyl)-amino]-6-phenyl-2-azahexane], for which the IC50 in data set [1] is 26 nM. Besides, in data set [2], the “ED90 (concentration that reduces the RT activity by 90%; 90% inhibition of virus replication)” value was found to be 3 nM. Besides, the values for the plasma level in data set [3] (30 min after administration) and in data set [3] (90 min after administration) were 21.83 µM and 31.76 µM, respectively.
